Consider two compounds from patent US11567011B2, “System and method for drug detection in exhaled breath” (Sensa Bues AB, priority 2009, dated 2023).

A short description of data set [1]: Example 2: methadone in exhaled breath collected on Empore C18 disc, UPLC-MS/MS. The conditions noted are these: all 13 studied patients.
A short description of data set [2]: Example 1: amphetamine and methamphetamine in expired air collected on SPE cartridge, SRM UPLC-MS/MS. The conditions noted are these: all 12 studied patients.

For the compound `CCC(=O)C(CC(C)N(C)C)(c1ccccc1)c1ccccc1` (centres unmarked) [methadone], the “detection in the sampled exhaled breath” value in data set [1] is given as “detected”.

In the case of `CN[C@@H](C)Cc1ccccc1` [methamphetamine], in data set [2], the “detection in the expired air sample” value is listed as “detected”.
